Publication PMC6070996 (Marine Drugs, 2018)
Read-outs that look alike come from different tables or passages of the source.

Columns and labels:
[1] = target: T1, elastase from porcine pancreas (Sus scrofa, UniProt P00772); test: elastase inhibition assay; format: biochemical; design: key: - not active; */** small/medium activity; */** small/medium activity; settings: highest concentration 45.4 μg/mL
T1 construct: purchased Sigma-Aldrich E0258; host or cells: porcine pancreas

Thrombin = target: T2, Thrombin (Bos taurus, UniProt P00735); test: thrombin inhibition assay; format: biochemical; design: key: - not active; */** small/medium activity; */** small/medium activity; settings: highest concentration 45.4 μg/mL
T2 construct: purchased Sigma-Aldrich T4648

[2] = target: T3, protein phosphatase 1 (PP1) (Oryctolagus cuniculus, UniProt P62139); test: protein phosphatase 1 inhibition assay; format: biochemical; design: key: - not active; */** small/medium activity; */** small/medium activity; settings: highest concentration 45.4 μg/mL
T3 construct: purchased England Biolabs, Hitchin, UK (New England Biolabs) 754S

[3] = target: human leukocyte elastase (HLE); design: method as in PMID 18924217; settings: activity of extracts; read-out: Enzyme Inhibition HLE IC50; cited from earlier work
[4] = target: T4, trypsin from porcine pancreas (Sus scrofa, UniProt P00761); test: trypsin inhibition assay; format: biochemical; design: key: - not active; */** small/medium activity; */** small/medium activity; settings: class symbols
T4 construct: purchased Sigma-Aldrich T0303; host or cells: porcine pancreas

[5] = target: α-chymotrypsin from bovine pancreas (Bos taurus, UniProt P00766); test: chymotrypsin inhibition assay; format: biochemical; design: key to Enzyme Inhibition Chymotrypsin (activity class): - not active; */** small/medium activity; */** small/medium activity; settings: for Enzyme Inhibition Chymotrypsin (activity class): class symbols
Chymotrypsin = settings: cited from earlier work
[6] = tested on: MCF-7 breast cancer cells; test: MTT cytotoxicity assay; format: cell-based; settings: 24-h exposure, 0 to 500 μg/mL
Method: For the test, two CPs were selected: Arg^2-containing CP962 and Tyr^2-containing CP985. MCF-7 breast cancer cells were seeded at 7.5 × 10^3 cells/100 μL in a 96-well plates and incubated at 37 °C, 5% CO2 for 24 h. The cells were then treated for a further 24 h with CP962 and CP985 (0 to 500 μg/mL). After 24 h, sterile-filtered 3-(4,5-dimethylthiazol-2-yl)-2,5-diphenyltetrazolium bromide solution (MTT; 1 mg/mL) was added to each well. After 4 h incubation at 37 °C in the dark, the MTT solution was removed and formazan crystals solubilized in DMSO. The plates were shaken for 20 min, in the dark, at room temperature and absorbance was measured at 560 nm (Synergy/HT, BIOTEK, Wnooski, VT, USA). For each CP, three independent experiments were carried out and each treatment consisted of six replicates per plate. Bar charts were used to represent the viability of MCF-7 cells treated with CP962 and CP985, compared to the control (i.e., untreated cells) that represented 100% cell viability.

mice = settings: administered intraperitoneally at concentrations up to 1000 µg/kg b.w.; cited from earlier work
small crustaceans = tested on: small crustaceans; design: method as in doi:10.2216/i0031-8884-35-6S-111.1, PMID 20405925, PMID 12662108; settings: cited from earlier work

T1 sequence (P00772 27-266): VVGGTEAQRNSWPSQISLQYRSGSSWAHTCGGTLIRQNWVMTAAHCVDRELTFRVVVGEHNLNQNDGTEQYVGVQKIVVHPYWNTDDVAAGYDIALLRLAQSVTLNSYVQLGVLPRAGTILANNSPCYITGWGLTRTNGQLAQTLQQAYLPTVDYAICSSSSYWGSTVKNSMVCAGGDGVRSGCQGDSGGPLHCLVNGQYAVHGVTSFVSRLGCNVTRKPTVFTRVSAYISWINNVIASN
T3 sequence (P62139 whole entry): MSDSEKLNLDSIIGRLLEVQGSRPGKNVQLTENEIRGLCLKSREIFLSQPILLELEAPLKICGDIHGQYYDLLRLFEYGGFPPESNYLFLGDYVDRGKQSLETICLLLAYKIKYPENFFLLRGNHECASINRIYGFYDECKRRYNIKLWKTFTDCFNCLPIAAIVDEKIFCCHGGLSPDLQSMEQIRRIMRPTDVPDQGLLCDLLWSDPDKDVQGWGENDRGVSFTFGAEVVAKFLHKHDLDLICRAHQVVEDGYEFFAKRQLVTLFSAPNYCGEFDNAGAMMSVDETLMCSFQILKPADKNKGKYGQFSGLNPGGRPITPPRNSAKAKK
T4 sequence (P00761 9-231): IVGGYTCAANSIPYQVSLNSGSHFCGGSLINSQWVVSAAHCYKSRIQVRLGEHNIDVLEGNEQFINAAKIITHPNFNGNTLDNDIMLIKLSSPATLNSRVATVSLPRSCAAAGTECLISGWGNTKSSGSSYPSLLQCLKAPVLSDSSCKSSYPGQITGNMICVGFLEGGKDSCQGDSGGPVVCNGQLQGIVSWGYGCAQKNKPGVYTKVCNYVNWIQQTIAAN

CCCC(=O)N[C@@H](CC(=O)O)C(=O)N[C@@H]1C(=O)N[C@@H](CCCNC(=N)N)C(=O)N[C@H]2CC[C@@H](O)N(C2=O)[C@@H](Cc2ccccc2)C(=O)N(C)[C@@H](Cc2ccc(O)cc2)C(=O)N[C@@H](C(C)C)C(=O)O[C@@H]1C [CP 978, [Thr+Arg+Ahp+Phe+MeTyr+Val]Asp+BA]
Enzyme Inhibition Elastase (activity class) [1]: -
Enzyme Inhibition Thrombin (activity class) (Thrombin): -
Enzyme Inhibition Protein Phosphatase 1 (activity class) [2]: -

[Hmp+Leu+Ahp+Ile+MeTyr+Val]Cit+Ac [Insulapeptolide A]
IC50 [3]: 140 nM

CCCCCCCC(=O)N[C@@H](CC(=O)O)C(=O)N[C@@H]1C(=O)N[C@@H](CCCNC(=N)N)C(=O)N[C@H]2CC[C@@H](O)N(C2=O)[C@@H](Cc2ccccc2)C(=O)N(C)[C@@H](CCc2ccc(O)cc2)C(=O)N[C@@H](C(C)C)C(=O)O[C@@H]1C [CP 1048, [Thr+Arg+Ahp+Phe+MeHty+Val]Asp+OA]
Enzyme Inhibition Elastase (activity class) [1]: -
Enzyme Inhibition Thrombin (activity class) (Thrombin): -
Enzyme Inhibition Trypsin (activity class) [4]: **
Enzyme Inhibition Protein Phosphatase 1 (activity class) [2]: -
Enzyme Inhibition Chymotrypsin (activity class) [5]: *

CC(=O)N[C@@H](CCC(N)=O)C(=O)N[C@@H]1C(=O)N[C@@H](CC(C)C)C(=O)N[C@H]2CC[C@@H](O)N(C2=O)[C@@H](Cc2ccccc2)C(=O)N(C)[C@@H](Cc2ccc(O)cc2)C(=O)N[C@@H](C(C)C)C(=O)O[C@@H]1C [Nostopeptin BN920, [Thr+Leu+Ahp+Phe+MeTyr+Val]Gln+Ac]
IC50 (Chymotrypsin; read-out: Enzyme Inhibition Chymotrypsin IC50): 110 nM

CCCC(=O)N[C@@H](CC(=O)O)C(=O)N[C@@H]1C(=O)N[C@@H](Cc2ccc(O)cc2)C(=O)N[C@H]2CC[C@@H](O)N(C2=O)[C@@H](Cc2ccccc2)C(=O)N(C)[C@@H](CCc2ccc(O)cc2)C(=O)N[C@@H](C(C)C)C(=O)O[C@@H]1C [CP 999, [Thr+Tyr+Ahp+Phe+MeHty+Val]Asp+BA]
Enzyme Inhibition Thrombin (activity class) (Thrombin): -
Enzyme Inhibition Trypsin (activity class) [4]: -
Enzyme Inhibition Protein Phosphatase 1 (activity class) [2]: -
Enzyme Inhibition Chymotrypsin (activity class) [5]: **

CCCCCC(=O)N[C@@H](CC(=O)O)C(=O)N[C@@H]1C(=O)N[C@@H](CCCNC(=N)N)C(=O)N[C@H]2CC[C@@H](O)N(C2=O)[C@@H](Cc2ccccc2)C(=O)N(C)[C@@H](Cc2ccc(O)cc2)C(=O)N[C@@H](C(C)C)C(=O)O[C@@H]1C [CP 1006, [Thr+Arg+Ahp+Phe+MeTyr+Val]Asp+HA]
Enzyme Inhibition Elastase (activity class) [1]: -
Enzyme Inhibition Thrombin (activity class) (Thrombin): -
Enzyme Inhibition Trypsin (activity class) [4]: **
Enzyme Inhibition Protein Phosphatase 1 (activity class) [2]: -
Enzyme Inhibition Chymotrypsin (activity class) [5]: *

[Thr+Hph+Ahp+Thr+MeTyr+Val]Ser+Pro+BA [Insulapeptolide F]
IC50 [3]: 1600 nM

CCCC(=O)N[C@@H](CC(=O)O)C(=O)N[C@@H]1C(=O)N[C@@H](Cc2ccc(O)cc2)C(=O)N[C@H]2CC[C@@H](O)N(C2=O)[C@@H](Cc2ccccc2)C(=O)N(C)[C@@H](Cc2ccccc2)C(=O)N[C@@H](C(C)C)C(=O)O[C@@H]1C [CP 969, [Thr+Tyr+Ahp+Phe+MePhe+Val]Asp+BA]
Enzyme Inhibition Elastase (activity class) [1]: -
Enzyme Inhibition Thrombin (activity class) (Thrombin): -
Enzyme Inhibition Trypsin (activity class) [4]: -
Enzyme Inhibition Protein Phosphatase 1 (activity class) [2]: -
Enzyme Inhibition Chymotrypsin (activity class) [5]: **

[Thr+Hph+Ahp+Thr+MeTyr+Ile]Ser+Pro+BA [Insulapeptolide E]
IC50 [3]: 3200 nM

CCCCCC(=O)N[C@@H](CC(=O)O)C(=O)N[C@@H]1C(=O)N[C@@H](Cc2ccc(O)cc2)C(=O)N[C@H]2CC[C@@H](O)N(C2=O)[C@@H](Cc2ccccc2)C(=O)N(C)[C@@H](Cc2ccc(O)cc2)C(=O)N[C@@H](C(C)C)C(=O)O[C@@H]1C [CP 1013, [Thr+Tyr+Ahp+Phe+MeTyr+Val]Asp+HA]
Enzyme Inhibition Elastase (activity class) [1]: -
Enzyme Inhibition Thrombin (activity class) (Thrombin): -
Enzyme Inhibition Trypsin (activity class) [4]: -
Enzyme Inhibition Protein Phosphatase 1 (activity class) [2]: -
Enzyme Inhibition Chymotrypsin (activity class) [5]: **

CCCC(=O)NC(CC(=O)O)C(=O)NC1C(=O)NC(Cc2ccc(O)cc2)C(=O)NC2CCC(O)N(C2=O)C(Cc2ccccc2)C(=O)N(C)C(Cc2ccc(O)cc2)C(=O)NC(C(C)C)C(=O)OC1C (stereo not shown) [CP 985, [Thr+Tyr+Ahp+Phe+MeTyr+Val]Asp+BA]
cytotoxic effects on MCF-7 cells (MTT) [6]: no cytotoxic effects
Enzyme Inhibition Elastase (activity class) [1]: -
Enzyme Inhibition Thrombin (activity class) (Thrombin): -
Enzyme Inhibition Trypsin (activity class) [4]: -
Enzyme Inhibition Protein Phosphatase 1 (activity class) [2]: -
IC50 ([5]; read-out: Enzyme Inhibition (IC50 [µM]) Chymotrypsin): 0.26 µM

CCCCCC(=O)N[C@@H](CC(=O)O)C(=O)N[C@@H]1C(=O)N[C@@H](Cc2ccc(O)cc2)C(=O)N[C@H]2CC[C@@H](O)N(C2=O)[C@@H](Cc2ccccc2)C(=O)N(C)[C@@H](CCc2ccc(O)cc2)C(=O)N[C@@H](C(C)C)C(=O)O[C@@H]1C [CP 1027, [Thr+Tyr+Ahp+Phe+MeHty+Val]Asp+HA]
Enzyme Inhibition Elastase (activity class) [1]: -
Enzyme Inhibition Thrombin (activity class) (Thrombin): -
Enzyme Inhibition Trypsin (activity class) [4]: -
Enzyme Inhibition Protein Phosphatase 1 (activity class) [2]: -

[Hmp+Leu+Ahp+Ile+diMeTyr+Ile]Cit+Ac [Insulapeptolide D]
IC50 [3]: 85 nM

CCCCCCCC(=O)N[C@@H](CC(=O)O)C(=O)N[C@@H]1C(=O)N[C@@H](CCCNC(=N)N)C(=O)N[C@H]2CC[C@@H](O)N(C2=O)[C@@H](Cc2ccccc2)C(=O)N(C)[C@@H](Cc2ccccc2)C(=O)N[C@@H](C(C)C)C(=O)O[C@@H]1C [CP 1018, [Thr+Arg+Ahp+Phe+MePhe+Val]Asp+OA]
Enzyme Inhibition Elastase (activity class) [1]: -
Enzyme Inhibition Thrombin (activity class) (Thrombin): -
Enzyme Inhibition Protein Phosphatase 1 (activity class) [2]: -
Enzyme Inhibition Chymotrypsin (activity class) [5]: -

CCCC(=O)NC(CC(=O)O)C(=O)NC1C(=O)NC(CCCNC(=N)N)C(=O)NC2CCC(O)N(C2=O)C(Cc2ccccc2)C(=O)N(C)C(Cc2ccccc2)C(=O)NC(C(C)C)C(=O)OC1C (stereo not shown) [CP 962, [Thr+Arg+Ahp+Phe+MePhe+Val]Asp+BA]
cytotoxic effects on MCF-7 cells (MTT) [6]: no cytotoxic effects
Enzyme Inhibition Elastase (activity class) [1]: -
Enzyme Inhibition Thrombin (activity class) (Thrombin): -
Enzyme Inhibition Trypsin (activity class) [4]: **
Enzyme Inhibition Protein Phosphatase 1 (activity class) [2]: -
Enzyme Inhibition Chymotrypsin (activity class) [5]: -

Oscillapeptin J
harmful effects in mice (mice): did not induce any harmful effects
acute effects in small crustaceans (small crustaceans): induced acute effects

CC[C@H](C)[C@H]1C(=O)N(C)[C@@H](Cc2ccc(OC)cc2)C(=O)N[C@@H](C(C)C)C(=O)O[C@@H]2[C@H](C)CN(C(=O)[C@H](CCCNC(N)=O)NC(C)=O)[C@@H]2C(=O)N[C@@H](CC(C)C)C(=O)N[C@H]2CC[C@@H](O)N1C2=O [Insulapeptolide C, [Hmp+Leu+Ahp+Ile+diMeTyr+Val]Cit+Ac]
IC50 [3]: 90 nM

CC[C@H](C)[C@@H]1NC(=O)[C@H](Cc2ccc(O)cc2)N(C)C(=O)[C@H](Cc2ccccc2)N2C(=O)[C@H](CC[C@H]2O)NC(=O)[C@H](Cc2ccccc2)NC(=O)[C@@H](NC(=O)[C@@H](O)COP(=O)(O)O)[C@@H](C)OC1=O [micropeptin T20]
IC50 (Chymotrypsin; read-out: chymotrypsin IC50): 2.5 nM

[Thr+Hph+Ahp+Thr+MeTyr+Ile]Ser+Pro+BA [Insulapeptolide H]
IC50 [3]: 2700 nM

[Hmp+Leu+Ahp+Leu+MeTyr+Ile]Cit+Ac [Insulapeptolide B]
IC50 [3]: 100 nM

CCCC(=O)N[C@@H](CC(=O)O)C(=O)N[C@@H]1C(=O)N[C@@H](CCCNC(=N)N)C(=O)N[C@H]2CC[C@@H](O)N(C2=O)[C@@H](Cc2ccccc2)C(=O)N(C)[C@@H](CCc2ccc(O)cc2)C(=O)N[C@@H](C(C)C)C(=O)O[C@@H]1C [CP 992, [Thr+Arg+Ahp+Phe+MeHty+Val]Asp+BA]
Enzyme Inhibition Elastase (activity class) [1]: -
Enzyme Inhibition Thrombin (activity class) (Thrombin): -
Enzyme Inhibition Protein Phosphatase 1 (activity class) [2]: -

[Thr+Hph+Ahp+Thr+MePhe+Val]Ser+Pro+BA [Insulapeptolide G]
IC50 [3]: 3500 nM

CCCCCC(=O)N[C@@H](CC(=O)O)C(=O)N[C@@H]1C(=O)N[C@@H](CCCNC(=N)N)C(=O)N[C@H]2CC[C@@H](O)N(C2=O)[C@@H](Cc2ccccc2)C(=O)N(C)[C@@H](Cc2ccccc2)C(=O)N[C@@H](C(C)C)C(=O)O[C@@H]1C [CP 990, [Thr+Arg+Ahp+Phe+MePhe+Val]Asp+HA]
Enzyme Inhibition Elastase (activity class) [1]: -
Enzyme Inhibition Thrombin (activity class) (Thrombin): -
Enzyme Inhibition Trypsin (activity class) [4]: **
Enzyme Inhibition Protein Phosphatase 1 (activity class) [2]: -
Enzyme Inhibition Chymotrypsin (activity class) [5]: -
